Our source for the IC50 values is patent publication US9902728B2, “Pyrrolo and pyrazolopyrimidines as ubiquitin-specific protease 7 inhibitors” (Forma Therapeutics, Inc., priority 2014, dated 2018).

Some results are limits rather than exact numbers.

The target in one test is T1, USP7 (Homo sapiens, UniProt Q93009).
T1 construct: USP7, construct USP7 (208-1102) 6*His, Viva Biotech; 6xHis (C); purchased Viva Biotech
T1 sequence (Q93009 208-1102): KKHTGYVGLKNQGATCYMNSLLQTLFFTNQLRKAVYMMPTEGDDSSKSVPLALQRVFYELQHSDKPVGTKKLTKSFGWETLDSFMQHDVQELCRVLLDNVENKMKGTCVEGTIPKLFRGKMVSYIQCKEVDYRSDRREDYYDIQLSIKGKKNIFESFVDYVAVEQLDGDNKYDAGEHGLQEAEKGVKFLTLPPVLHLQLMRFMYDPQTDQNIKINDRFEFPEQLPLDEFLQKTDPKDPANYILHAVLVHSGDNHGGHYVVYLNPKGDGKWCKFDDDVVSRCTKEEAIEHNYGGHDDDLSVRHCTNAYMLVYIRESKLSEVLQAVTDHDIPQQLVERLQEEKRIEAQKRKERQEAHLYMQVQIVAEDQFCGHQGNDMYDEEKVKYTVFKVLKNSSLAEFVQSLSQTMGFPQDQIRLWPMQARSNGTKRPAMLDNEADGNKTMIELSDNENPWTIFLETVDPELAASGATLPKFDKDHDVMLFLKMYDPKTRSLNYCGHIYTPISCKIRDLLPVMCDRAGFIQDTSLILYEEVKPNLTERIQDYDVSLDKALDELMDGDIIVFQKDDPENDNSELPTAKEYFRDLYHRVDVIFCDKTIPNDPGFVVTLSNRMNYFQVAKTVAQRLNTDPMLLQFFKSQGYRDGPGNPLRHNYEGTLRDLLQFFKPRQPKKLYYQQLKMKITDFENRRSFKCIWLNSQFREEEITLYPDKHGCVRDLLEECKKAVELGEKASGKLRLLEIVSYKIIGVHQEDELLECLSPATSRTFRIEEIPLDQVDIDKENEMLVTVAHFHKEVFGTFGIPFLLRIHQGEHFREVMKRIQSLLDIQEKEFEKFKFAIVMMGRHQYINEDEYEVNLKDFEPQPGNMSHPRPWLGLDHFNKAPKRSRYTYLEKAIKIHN
The experiment in a line: USP7 Assay A (Ubitquin-Rhodamine 110 Assay). The test is classed as biochemical. The conditions noted are these: USP7 activity in USP7 assay A and B (table does not say which assay per compound); read-out: USP7_IC50. A digest of the protocol:
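Enzyme and compound sat together for 30 min before Ub-Rh110 was added, in buffer of 20 mM Tris-HCl (pH 8.0), 1 mM GSH, 0.03% BGG and 0.01% Triton X-100.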
Regarding `O=C(c1ccc(F)cc1)N1CCC(O)(Cn2cnc3c(cnn3-c3ccc(-n4cc5c(n4)CCOC5)cc3)c2=O)CC1` [Compound I-976], the IC50 was 1000 to 10000 nM. The same measure, in the same setting: the value for `C[C@@H](CC(=O)N1CCC(O)(Cn2cnc3c(cnn3-c3ccc(F)cc3)c2=O)CC1)n1ccc(F)n1` [Compound I-1029] was 1000 to 10000 nM; that for `CC1(C(=O)N2CCC(O)(Cn3cnc4c(cnn4-c4ccc(OCC5(F)CCC5)cc4)c3=O)CC2)CCC1` [Compound I-1137] was below 200 nM; that for `C[C@@]1(O)CCN(c2ccc(-n3ncc4c(=O)n(CC5(O)CCN(C(=O)C[C@@H](C(F)F)n6cccn6)CC5)cnc43)cc2)C1` [Compound I-836] was 1000 to 10000 nM. In the case of `O=C(c1cnc(NC2CC2)o1)N1CCC(O)(Cn2cnc3c(cnn3-c3ccc(Cl)cc3)c2=O)CC1` [Compound I-771], the IC50 lay within 200 to 1000 nM. The same measure, in the same setting: the value for `CN1CCN(c2ccc(-n3ncc4c(=O)n(CC5(O)CCN(C(=O)C6(C)CC6)CC5)cnc43)cc2)CC1` [Compound I-1641] was below 200 nM. Still for that read-out and setting: the value for `C[C@@]1(O)CCN(c2ccc(-n3ncc4c(=O)n(CC5(O)CCN(C(=O)C6CCCCC6)CC5)cnc43)cc2)C1` [Compound I-783] was 200 to 1000 nM. For `O=C(C1CC(Nc2ccc(F)cn2)C1)N1CCC(O)(Cn2cnc3c(cnn3-c3ccc(F)cc3)c2=O)CC1` (stereo not shown) [Compound I-1032], the IC50 lay in the range of 200 to 1000 nM. On to `O=C(c1nnc(C2CC2)o1)N1CCC(O)(Cn2cnc3c(cnn3-c3ccc(F)cc3)c2=O)CC1` [Compound I-556], for which the IC50 was in the range of 1000 to 10000 nM. Regarding `O=C(C[C@H](C(F)F)n1ccc(F)n1)N1CCC(O)(Cn2cnc3c(cnn3-c3ccc(Cl)cc3)c2=O)CC1` [Compound I-1167], the IC50 lay within 1000 to 10000 nM. On to `CC1(C(=O)N2CCC(O)(Cn3cnc4c(cnn4-c4ccc(-c5cnn(C(F)F)c5)cc4)c3=O)CC2)CC1` [Compound I-489], for which the IC50 was in the range of 200 to 1000 nM. Still for that read-out and setting: the figure for `O=C(c1ocnc1Cc1ccccc1)N1CCC(O)(Cn2cnc3c(cnn3-c3ccccc3)c2=O)CC1` [Compound I-1108] is above 10000 nM; for `O=C(c1ccc(N2CC3CC2CN3)cc1)N1CCC(O)(Cn2cnc3c(cnn3-c3ccc(F)cc3)c2=O)CC1` (stereo not shown) [Compound I-1005] it is 1000 to 10000 nM; for `O=C(c1ccc(F)cc1)N1CCC(O)(Cn2cnc3c(cnn3-c3ccc(-c4cnn(C5CC5)c4)cc3)c2=O)CC1` [Compound I-1746] it is 200 to 1000 nM.

For the compound `Cn1cc(C2CCC(C(=O)N3CCC(O)(Cn4cnc5c(cnn5-c5ccc(F)cc5)c4=O)CC3)CC2)cn1` (stereo not shown) [Compound I-728], the IC50 lay within 200 to 1000 nM. As for `CC(=O)N1C[C@@H]2C[C@H]1CN2c1ccc(-n2ncc3c(=O)n(CC4(O)CCN(C(=O)C5(C)CC5)CC4)cnc32)cc1` [Compound I-1747], the IC50 fell in the range of 200 to 1000 nM. The same measure, in the same setting: the value for `CC1(C(=O)N2CCC(O)(Cn3cnc4c(cnn4-c4ccc(N5CCC6(CC5)COC6)cc4)c3=O)CC2)CC1` [Compound I-1716] was below 200 nM. Turning to `CC(=O)N1CC2CC1CN2c1ccc(-n2ncc3c(=O)n(CC4(O)CCN(C(=O)C5(C)CC5)CC4)cnc32)cc1` (stereo not shown) [Compound I-1749], the IC50 was in the range of 200 to 1000 nM. Same read-out and setting: the figure for `CN[C@H]1CCN(c2ccc(-c3ccc(-n4ncc5c(=O)n(CC6(O)CCN(C(=O)C7CC7)CC6)cnc54)cc3)cn2)C1` [Compound I-684] is below 200 nM; for `Cc1ccc(-n2ncc3c(=O)n(CC4(O)CCN(C(=O)C5CC(Oc6ccccn6)C5)CC4)cnc32)cc1` (stereo not shown) [Compound I-917] it is 1000 to 10000 nM. On to `CC(=O)N1C[C@@H]2C[C@H]1CN2c1cccc(-n2ncc3c(=O)n(CC4(O)CCN(C(=O)C5(C)CC5)CC4)cnc32)c1` [Compound I-1702], for which the IC50 was 200 to 1000 nM.

The same test, now with this note: USP7 assay A and B (table does not say which assay per compound); read-out: USP7_IC50.
On to `CN(C)CCN(C)c1cccc(-n2ncc3c(=O)n(CC4(O)CCN(C(=O)c5ccc(F)cc5)CC4)cnc32)c1` [Compound I-823], for which the IC50 was 200 to 1000 nM.

Regarding `O=C(C1CC1)N1CCC(O)(Cn2cnc3c(cnn3-c3cccc(-c4cccc(Cl)c4)c3)c2=O)CC1` [Compound I-347], the IC50 lay in the range of 1000 to 10000 nM.

For the compound `O=C(C1CC1)N1CCC(O)(Cn2cnc3c(cnn3-c3ccc(Cl)c(Cl)c3)c2=O)CC1` [Compound I-33], the IC50 lay in the range of 1000 to 10000 nM. The same measure, in the same setting: the figure for `C[C@]1(O)CCN(c2cc(-n3ncc4c(=O)n(CC5(O)CCN(C(=O)C6CC6)CC5)cnc43)ccc2F)C1` [Compound I-637] is 200 to 1000 nM. Turning to `O=C(C1CC1)N1CCC(O)(Cn2cnc3c(cnn3-c3ccc(C4CCNCC4)cc3)c2=O)CC1` [Compound I-843, 5-((1-(cyclopropanecarbonyl)-4-hydroxypiperidin-4-yl)methyl)-1-(4-(piperidin-4-yl)phenyl)-1H-pyrazolo[3,4-d]pyrimidin-4(5H)-one], the IC50 lay within 200 to 1000 nM.

As to `O=C(C1CC1)N1CCC(O)(Cn2cnc3c(cnn3-c3ccccc3)c2=O)CC1` [Compound I-158], the IC50 was in the range of 1000 to 10000 nM. On the same count and under the same terms, the value for `O=C(c1ccc(-n2ccnn2)cc1)N1CCC(O)(Cn2cnc3c(cnn3-c3ccc(F)cc3)c2=O)CC1` [Compound I-1535] was 200 to 1000 nM; that for `C[C@H](CC(=O)N1CCC(O)(Cn2cnc3c(cnn3-c3ccc(F)cc3)c2=O)CC1)n1cc2c(n1)CCC2` [Compound I-520] was above 10000 nM; that for `O=C(c1ccc2c(c1)CCO2)N1CCC(O)(Cn2cnc3c(cnn3-c3ccc(Cl)cc3)c2=O)CC1` [Compound I-1521] was 1000 to 10000 nM. As to `O=C(c1ccc(C2(O)CC2)cc1)N1CCC(O)(Cn2cnc3c(cnn3-c3ccccc3)c2=O)CC1` [Compound I-467], the IC50 lay within 1000 to 10000 nM. In the case of `CCc1ccc(CN(C)Cc2ccc(-n3ncc4c(=O)n(CC5(O)CCN(C(=O)C6CC6)CC5)cnc43)cc2)cn1` [Compound I-440], the IC50 lay in the range of 1000 to 10000 nM.

With `O=C(N1CCC(O)(Cn2cnc3c(cnn3-c3ccccc3)c2=O)CC1)C1(C(F)(F)F)CC1` [Compound I-277], the IC50 was in the range of 1000 to 10000 nM. Same read-out and setting: the value for `C[C@@](O)(c1ccc(C(=O)N2CCC(O)(Cn3cnc4c(cnn4-c4ccc(F)cc4)c3=O)CC2)cc1)C(F)(F)F` [Compound I-527] was 1000 to 10000 nM. Consider `O=C(C[C@@H](c1ccccc1)C(F)(F)F)N1CCC(O)(Cn2cnc3c(cnn3-c3ccccc3)c2=O)CC1` [Compound I-142], for which the IC50 is below 200 nM.

As for `O=C(c1cnc(-c2ccccc2)o1)N1CCC(O)(Cn2cnc3c(cnn3-c3ccccc3)c2=O)CC1` [Compound I-252], the IC50 was in the range of 200 to 1000 nM. The same measure, in the same setting: the figure for `O=C(C1CC1)N1CCC(O)(Cn2cnc3c(cnn3-c3ccc(-c4cccc(F)c4)cc3)c2=O)CC1` [Compound I-330] is 1000 to 10000 nM; for `O=C(C1CC1)N1CCC(O)(Cn2cnc3c(cnn3-c3ccc(-c4cccc(N5CCCC5)c4)cc3)c2=O)CC1` [Compound I-399] it is 1000 to 10000 nM.

On to `Cn1ccc(Oc2ccc(C(=O)N3CCC(O)(Cn4cnc5c(cnn5-c5ccc(F)cc5)c4=O)CC3)cc2)n1` [Compound I-719], for which the IC50 lay within 1000 to 10000 nM. Still for that read-out and setting: the value for `CN1CCN(c2ccc(-c3ccc(-n4ncc5c(=O)n(CC6(O)CCN(C(=O)C7CC7)CC6)cnc54)cc3)cc2)CC1` [Compound I-844] was below 200 nM. Same read-out and setting: the value for `NC(=O)c1ccc(C(=O)N2CCC(O)(Cn3cnc4c(cnn4-c4ccccc4)c3=O)CC2)cc1` [Compound I-179] was 200 to 1000 nM. As for `CNC(=O)Nc1ccc(-n2ncc3c(=O)n(CC4(O)CCN(C(=O)C5CC5)CC4)cnc32)cc1` [Compound I-506], the IC50 lay in the range of 1000 to 10000 nM. On the same count and under the same terms, the value for `Cc1cc(C)cc(C(=O)N2CCC(O)(Cn3cnc4c(cnn4-c4ccccc4)c3=O)CC2)c1` [Compound I-197] was 1000 to 10000 nM.
